Results: patent US4013774A (priority 1975, dated 1977)
Like-named read-outs stand apart in the source and are kept apart here.

Assays:
[1] = tested on: American Cockroach (Periplaneta americana L.); experiment: whole plant or invertebrate; settings: 24 h; for mortality at 16 ppm: read-out: Cockroach, mortality, 16 ppm
[2] = tested on: Mosquito larvae (Aedes aegypti); experiment: whole plant or invertebrate; settings: 48 h, read-out: Mosquito, mortality, 0.05 ppm
[3] = tested on: Aphids (Aphis gossypii Glover); experiment: whole plant or invertebrate; settings: in Cucumis sativus, 24 h; for mortality at 4 ppm: read-out: Aphids, mortality, 4 ppm; for mortality at 40 ppm: read-out: Aphids, mortality, 40 ppm (*)
in vivo = settings: rat, po
[4] = tested on: Flour Beetle (Tribolium confusum DuVal); experiment: whole plant or invertebrate; settings: in Triticum aestivum, 168 h, read-out: Flour Beetle, mortality, 5 ppm
rats = settings: background statement; cited from earlier work
insects = settings: against a variety of insects; background, U.S. Pat. No. 3,474,171; cited from earlier work
[5] = topical, read-out: Cockroach, mortality, 100 ppm
[6] = read-out: Aphids, mortality, 0.64 ppm

| Compound | mortality at 16 ppm ([1]; topical) [%] | mortality at 100 ppm [1, 5] [%] | mortality at 0.05 ppm [2] [%] | mortality at 0.64 ppm [3, 6] [%] | mortality at 4 ppm [3] [%] | LD50 (in vivo) [mg/kg] | mortality at 5 ppm [4] [%] | mortality at 40 ppm [3] [%] | oral toxicity, LD50 (rats) (rats) [mg/kg] | contact and systemic activity (insects) | mortality at 100 ppm ([1]; read-out: control of American cockroaches) [%] | mortality at 0.64 ppm ([3]; read-out: control of aphids) [%] |
| --- | --- | --- | --- | --- | --- | --- | --- | --- | --- | --- | --- | --- |
| CN(Sc1ccc(Cl)cc1)C(=O)Oc1cccc2c1OC(C)(C)C2 [Compound 4, 2,3-dihydro-2,2-dimethyl-7-benzofuranyl N-methyl N-p-chlorophenylthiocarbamate] | 5 | 100 | 100 | 97 | 100 | 25 to 41 | 96 | – | – | – | – | – |
| CN(Sc1ccc(F)cc1)C(=O)Oc1cccc2c1OC(C)(C)C2 [Compound 14, N-methyl-N-4-fluorophenylthio-2,3-dihydro-2,2-dimethyl-7-benzofuranyl carbamate] | – | – | 100 | 92 | – | 25 to 125 | – | – | – | – | – | – |
| CSN(C)C(=O)Oc1cccc2c1OC(C)(C)C2 [Compound 3, 2,3-dihydro-2,2-dimethyl-7-benzofuranyl N-methyl N-methylthiocarbamate] | 100 | 100 | – | 97 | 100 | 5 to 25 | – | – | – | – | – | – |
| CN(Sc1cc(Cl)ccc1Cl)C(=O)Oc1cccc2c1OC(C)(C)C2 [Compound 12] | – | – | 100 | 61 | – | 25 to 125 | – | – | – | – | – | – |
| CCSN(C)C(=O)Oc1cccc2c1OC(C)(C)C2 [Compound 7, N-methyl-N-ethylthio-2,3-dihydro-2,2-dimethyl-7-benzofuranyl carbamate] | – | – | 26 | 92 | – | 25 to 125 | – | – | – | – | – | – |
| Cc1ccc(SN(C)C(=O)Oc2cccc3c2OC(C)(C)C3)cc1 [Compound 10] | 2 | 100 | – | 96 | 100 | 25 to 125 | 76 | – | – | – | – | – |
| CN(Sc1ccc(Cl)c(Cl)c1)C(=O)Oc1cccc2c1OC(C)(C)C2 [Compound 11] | – | – | 100 | 97 | – | 25 to 125 | – | – | – | – | – | – |
| CN(Sc1ccc(C(C)(C)C)cc1)C(=O)Oc1cccc2c1OC(C)(C)C2 [Compound 16] | 0 | 67 | – | – | – | 125 to 250 | – | 100 | – | – | – | – |
| CNC(=O)Oc1cccc2c1OC(C)(C)C2 [FURADAN, N-methyl 2,3-dihydro-2,2-dimethyl-7-benzofuranyl carbamate, reference compound] | 100 | 100 | 0 | 73 to 98 | 100 | 11 | 10 | – | 5 to 11 | high contact and systemic activity | – | – |
| CN(SN(C)C(=O)Oc1cccc2c1OC(C)(C)C2)C(=O)Oc1cccc2c1OC(C)(C)C2 [Bis[O-(2,3-dihydro-2,2-dimethyl-7-benzofuranyl]-N-methylcarbamyl] sulfide] | – | – | – | – | – | – | – | – | – | – | 100 | 100 |
| CCCCCCCCCCCCSN(C)C(=O)Oc1cccc2c1OC(C)(C)C2 [Compound 8, N-methyl-N-dodecylthio-2,3-dihydro-2,2-dimethyl-7-benzofuranyl carbamate] | 0 | 20 | – | – | – | > 125 | – | 100 | – | – | – | – |
| CN(SC(Cl)=C(Cl)Cl)C(=O)Oc1cccc2c1OC(C)(C)C2 [Compound 5, N-methyl-N-trichlorovinylthio-2,3-dihydro-2,2-dimethyl-7-benzofuranyl carbamate] | 47 | 100 | – | 100 | 100 | – | – | – | – | – | – | – |
| CN(Sc1ccc(Br)cc1)C(=O)Oc1cccc2c1OC(C)(C)C2 [Compound 13] | – | – | 93 | 98 | – | 25 to 125 | – | – | – | – | – | – |
| CCCCSN(C)C(=O)Oc1cccc2c1OC(C)(C)C2 [Compound 6] | 95 | 100 | 100 | 97 | 100 | 60 to 125 | – | – | – | – | – | – |
| CN(Sc1ccccc1)C(=O)Oc1cccc2c1OC(C)(C)C2 [Compound 9, N-methyl-N-phenylthio-2,3-dihydro-2,2-dimethyl-7-benzofuranyl carbamate] | 37 | 100 | – | 98 | 100 | 25 to 125 | – | – | – | – | – | – |
| CN(Sc1ccc([N+](=O)[O-])cc1)C(=O)Oc1cccc2c1OC(C)(C)C2 [Compound 15] | 97 | 100 | – | 96 | 100 | 25 to 60 | – | – | – | – | – | – |
| CN(SC(Cl)(Cl)Cl)C(=O)Oc1cccc2c1OC(C)(C)C2 [Compound 1, N-methyl-N-trichloromethylthio-2,3-dihydro-2,2-dimethyl-7-benzofuranyl carbamate] | 15 | 100 | 46 | 91 | 100 | 125 to 250 | 100 | – | – | – | – | – |
